Data published in paper PMC3013507 (Anticancer research, 2010).
Like-named read-outs stand apart in the source and are kept apart here.

What was measured:
HL-60 cells [1] = test: Cytotoxicity; conditions: HL-60 leukemia cells; for HL-60 ED50: 3–4 days, SRB
HT-29 cells [2] = test: Cytotoxicity; conditions: HT-29 colon cancer cells; for HT-29 ED50: 3–4 days, SRB
HeLa cells [3] = test: Cytotoxicity; conditions: for HeLa ED50: HeLa cervical cancer cells, 3–4 days, SRB
NF-κB p65 = NF-κB p65 (Homo sapiens, UniProt Q04206); test: ELISA NF-κB p65 inhibition assay; format: cell-based; conditions: for NF-κB inhibitory activity (in words): NF-κB p65 ELISA; for ELISA NF-κB IC50: NF-κB p65, nuclear extract of HeLa cells treated with compound and TNF-α
NF-κB p65, sequence (Q04206 whole entry): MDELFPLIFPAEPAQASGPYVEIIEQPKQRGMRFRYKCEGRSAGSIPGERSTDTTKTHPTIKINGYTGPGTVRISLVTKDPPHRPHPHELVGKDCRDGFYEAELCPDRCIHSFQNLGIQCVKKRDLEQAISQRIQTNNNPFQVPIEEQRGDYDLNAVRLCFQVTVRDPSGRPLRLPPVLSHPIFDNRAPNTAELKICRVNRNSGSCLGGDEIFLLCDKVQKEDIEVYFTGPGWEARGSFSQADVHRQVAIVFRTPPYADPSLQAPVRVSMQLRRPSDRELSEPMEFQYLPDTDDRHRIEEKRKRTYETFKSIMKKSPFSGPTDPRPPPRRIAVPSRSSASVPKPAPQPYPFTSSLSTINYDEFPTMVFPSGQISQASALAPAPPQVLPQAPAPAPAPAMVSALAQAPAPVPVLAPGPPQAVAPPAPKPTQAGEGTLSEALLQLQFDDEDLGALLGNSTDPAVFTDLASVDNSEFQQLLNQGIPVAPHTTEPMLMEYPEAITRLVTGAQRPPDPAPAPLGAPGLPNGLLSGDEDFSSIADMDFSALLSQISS

HT-29 cells [4] = tested on: HT-29 cells
HeLa cells [5] = tested on: HeLa cells
HL-60 cells [6] = tested on: HL-60 cells
HT-29 cells [7] = test: Reactive oxygen species; format: cell-based; conditions: for Potentiating effect on intracellular ROS levels in the presence of H2O2: H2O2 50 μM
[8] = tested on: mitochondria transmembrane potential; test: Mitochondria transmembrane potential; format: cell-based; conditions: 2 h treatment, JC-1
NF-κB = NF-κB evaluation in whole cells; format: cell-based; conditions: HeLa cells, IL-1α stimulation; compound 8 at 5 μg/ml
NFAT-1 = NFAT-1 assay; format: cell-based; conditions: 30 min incubation
P-388 cell line = conditions: cited from earlier work

Molecule | HL-60 ED50 (HL-60 cells [1]) [µg/mL] | HT-29 ED50 (HT-29 cells [2]) [µg/mL] | HeLa ED50 (HeLa cells [3]) [µg/mL] | Cytotoxicity against HL-60 (in words) (HL-60 cells [6]) | ELISA NF-κB IC50 (NF-κB p65) [µg/mL] | other results
Cc1c2ccncc2c(C)c2c1[nH]c1ccccc12 [Ellipticine, ellipticine, reference compound] | 1.3 | 3.5 | 3.6 | – | – | –
COC(=O)[C@@]12OC[C@]34[C@H]([C@@H](O)[C@@H]1O)[C@@]1(C)CC(=O)C(O)=C(C)[C@@H]1C[C@H]3OC(=O)[C@H](OC(=O)CC(C)C)[C@@H]24 [Compound 6, bruceine A] | 0.069 | 1.6 | 0.6 | highly cytotoxic | – | IC50 (NF-κB p65): 4.21 µM; NF-κB inhibitory activity (in words) (NF-κB p65): moderate NF-κB inhibitory activity; Cytotoxicity against HT-29 (in words) (HT-29 cells [4]): highly cytotoxic; Cytotoxicity against HeLa (in words) (HeLa cells [5]): highly cytotoxic
COc1cc(-c2cc(=O)c3c(O)cc(O)cc3o2)ccc1O [Compound 8, chrysoeriol] | 0.6 | >20 | >20 | – | – | Potentiating effect on intracellular ROS levels in the presence of H2O2 (HT-29 cells [7]): exerted a potentiating effect; Elevation of intracellular ROS in the absence of H2O2 (HT-29 cells [7]; compound alone): most significant elevation of intracellular ROS; Effect on mitochondrial transmembrane potential [8]: able to compromise the integrity of the mitochondrial membrane to a larger extent than the other test compounds; Inhibition of NF-κB translocation into the nucleus (NF-κB): showed inhibition of translocation of NF-κB into the nucleus; NFAT translocation from the cytoplasm to the nucleus (NFAT-1): Induced activation of NFAT was confirmed by its translocation to the nucleus; Activity using the P-388 cell line (P-388 cell line): moderately active; Cytotoxicity against HL-60 (in words) (HL-60 cells [1]): selective cytotoxicity against the HL-60 cell line
COc1ccc([C@@]23Oc4cc(OC)cc(OC)c4[C@]2(O)[C@H](O)[C@H](C(=O)N(C)C)[C@H]3c2ccccc2)cc1 [Rocaglamide, reference compound] | – | – | – | – | – | Inhibition of NF-κB translocation into the nucleus (NF-κB): inhibited the translocation
C/C=C(\C)C(=O)O[C@@H]1C[C@@]2(C)[C@H]([C@@H]3C[C@@H]([C@@H]4OC4(C)C)O[C@@H]3OC(C)=O)CC[C@]2(C)[C@@H]2CC=C3C(C)(C)C(=O)C[C@H](O)[C@]3(C)[C@H]21 [Compound 2, bruceajavaninone A] | >20 | >20 | >20 | – | 5.3 | –
C/C=C(\C)C(=O)O[C@@H]1C[C@]2(C)C(=CC[C@H]2[C@@H]2C[C@@H]([C@@H]3OC3(C)C)O[C@@H]2OC(C)=O)[C@@]2(C)[C@H]1[C@@]1(C)C=CC(=O)C(C)(C)[C@@H]1C[C@H]2OC(C)=O [Compound 4, bruceajavanone B] | 1.1 | >20 | >20 | selective cytotoxicity against the HL-60 cell line | 1.0 | Potentiating effect on intracellular ROS levels in the presence of H2O2 (HT-29 cells [7]): exerted a potentiating effect
COC(=O)[C@@]12OC[C@]34[C@H]([C@@H](O)[C@@H]1O)[C@@]1(C)CC(=O)C(O)=C(C)[C@@H]1C[C@H]3OC(=O)[C@H](OC(=O)/C=C(\C)C(C)C)[C@@H]24 [Compound 5, bruceantin] | 0.0082 | 0.012 | 0.016 | – | – | IC50 (NF-κB p65): 35.7 µM; NF-κB inhibitory activity (in words) (NF-κB p65): moderate NF-κB inhibitory activity; Cytotoxicity against HL-60 (in words) (HL-60 cells [1]): highly cytotoxic; Cytotoxicity against HT-29 (in words) (HT-29 cells [2]): highly cytotoxic; Cytotoxicity against HeLa (in words) (HeLa cells [3]; HeLa cells): highly cytotoxic
bruceajavanone A 7-acetate [Compound 1] | >20 | >20 | >20 | – | >20 | –
bruceajavanone C [Compound 3] | >20 | >20 | >20 | – | >20 | –
COc1cc([C@H]2Oc3cc(-c4cc(=O)c5c(O)cc(O)cc5o4)ccc3O[C@@H]2CO)ccc1O [Compound 7, (−)-hydnocarpin] | 2.6 | 9.7 | >20 | moderate cytotoxicity | 11.5 | Cytotoxicity against HT-29 (in words) (HT-29 cells [4]): moderate cytotoxicity
